Measurements taken from the NIST ThermoML archive (doi:10.1007/s10765-015-1927-y).
Numbers after ± are expanded uncertainties.

Legend:
[1] = xn = mol fraction of the nth substance listed; settings: 303.15 K, 101 kPa, Liquid; for speed of sound: Frequency=1 MHz
[2] = 303.15 K, 101 kPa, Liquid; for speed of sound: Frequency=1 MHz

ClC=C(Cl)Cl [trichloroethene] + CCOC(C)=O
[1]
Settings	mass density [kg/m3]	speed of sound [m/s]	viscosity [mPa·s]
x1 = 0.1325	957.65 ± 0.43	1105 ± 5	0.451 ± 0.01
x1 = 0.2099	998.68 ± 0.43	1094 ± 5	0.47 ± 0.011
x1 = 0.3674	1083.99 ± 0.72	1073 ± 5	0.501 ± 0.011
x1 = 0.4158	1110.76 ± 0.83	1067 ± 5	0.509 ± 0.012
x1 = 0.5484	1185.16 ± 1.1	1051 ± 5	0.532 ± 0.012
x1 = 0.6854	1263.95 ± 1.5	1037 ± 5	0.552 ± 0.013
x1 = 0.8354	1352.1 ± 1.9	1025 ± 5	0.57 ± 0.013
x1 = 0.8995	1390.34 ± 2.1	1021 ± 5	0.577 ± 0.013
x1 = 1	1450.9 ± 2.5	1016 ± 5	0.589 ± 0.014

CCCOC(C)=O [propyl ethanoate] + ClC=C(Cl)Cl
[1], x2 = 0
Settings	mass density [kg/m3]	speed of sound [m/s]	viscosity [mPa·s]
–	876.55 ± 0.94	1148 ± 6	0.547 ± 0.013

CCOC(C)=O [ethyl acetate]
[2]
Settings	mass density [kg/m3]	speed of sound [m/s]	viscosity [mPa·s]
–	888.75 ± 0.46	1126 ± 5	0.424 ± 0.01

CCCOC(C)=O [propyl ethanoate]
[2]
Settings	mass density [kg/m3]	speed of sound [m/s]	viscosity [mPa·s]
–	876.55 ± 0.94	1148 ± 6	0.547 ± 0.013

CCCCOC(C)=O [butyl ethanoate]
[2]
Settings	mass density [kg/m3]	speed of sound [m/s]	viscosity [mPa·s]
–	871.07 ± 0.94	1170 ± 6	0.638 ± 0.015

ClC=C(Cl)Cl [trichloroethene] + CCCOC(C)=O
[1]
Settings	mass density [kg/m3]	speed of sound [m/s]	viscosity [mPa·s]
x1 = 0.1419	942.22 ± 0.93	1126 ± 6	0.567 ± 0.013
x1 = 0.2337	987.22 ± 0.94	1112 ± 6	0.578 ± 0.014
x1 = 0.364	1054.63 ± 1.1	1094 ± 5	0.592 ± 0.014
x1 = 0.4555	1104.47 ± 1.3	1081 ± 5	0.601 ± 0.014
x1 = 0.5827	1177.08 ± 1.5	1063 ± 5	0.61 ± 0.014
x1 = 0.6735	1231.75 ± 1.7	1050 ± 5	0.614 ± 0.014
x1 = 0.7713	1293.35 ± 1.9	1038 ± 5	0.612 ± 0.014
x1 = 0.8922	1374.05 ± 2.2	1025 ± 5	0.604 ± 0.014
x1 = 1	1450.9 ± 2.5	1016 ± 5	0.589 ± 0.014

ClC=C(Cl)Cl [trichloroethene] + CCCCOC(C)=O
[1]
Settings	mass density [kg/m3]	speed of sound [m/s]	viscosity [mPa·s]
x1 = 0.1739	944.38 ± 0.93	1145 ± 6	0.66 ± 0.015
x1 = 0.25	979.14 ± 0.94	1135 ± 6	0.665 ± 0.015
x1 = 0.3658	1035.81 ± 1.1	1115 ± 6	0.67 ± 0.015
x1 = 0.4722	1092.05 ± 1.3	1097 ± 5	0.666 ± 0.015
x1 = 0.5724	1149.11 ± 1.4	1080 ± 5	0.666 ± 0.015
x1 = 0.6942	1224.71 ± 1.7	1060 ± 5	0.654 ± 0.015
x1 = 0.7761	1279.91 ± 1.9	1047 ± 5	0.644 ± 0.015
x1 = 0.9126	1380.34 ± 2.3	1027 ± 5	0.62 ± 0.014
x1 = 1	1450.9 ± 2.5	1016 ± 5	0.589 ± 0.014

ClC=C(Cl)Cl [trichloroethene]
[2]
Settings	mass density [kg/m3]	speed of sound [m/s]	viscosity [mPa·s]
–	1450.9 ± 2.5	1016 ± 5	0.589 ± 0.014

CCCCOC(C)=O [butyl ethanoate] + ClC=C(Cl)Cl
[1], x2 = 0
Settings	mass density [kg/m3]	speed of sound [m/s]	viscosity [mPa·s]
–	871.07 ± 0.94	1170 ± 6	0.638 ± 0.015

CCOC(C)=O [ethyl acetate] + ClC=C(Cl)Cl
[1], x2 = 0
Settings	mass density [kg/m3]	speed of sound [m/s]	viscosity [mPa·s]
–	888.75 ± 0.46	1126 ± 5	0.424 ± 0.01
